Assays:
[1] = system: SKBR3 (PI3Kα-Wild Type) cell line; assay: HTRF phospho-AKT(S473) cell assay in SKBR3 cells; assay type: cell-based, human; conditions: Homo sapiens, SK-BR-3; HTRF phospho-AKT(S473), SKBR3 (PI3Kα-Wild Type) cells, 2 hours compound incubation, PDGF-BB stimulated
Method in brief: (§1)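 pAKT(S473) in lysates read by HTRF after a 2 h, 37 °C compound exposure (12-point 1:3 series, max 0.5% DMSO). SKBR3 (wild type, top 10 μM) received 70 ng/ml PDGF-BB during the final 15 min; T47D (H1047R, top 5 μM) was unstimulated. IC50 values derived from the dose-response.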

[2] = system: T47D (PI3Kα-H1047R) cell line; assay: HTRF phospho-AKT(S473) cell assay in T47D cells; assay type: cell-based, human; conditions: Homo sapiens; HTRF phospho-AKT(S473), T47D (PI3Kα-H1047R) cells, 2 hours compound incubation
Method in brief: as §1

| IC50 [1] [nM] | IC50 [2] [nM] | Compound |
| --- | --- | --- |
| ≥ 5000 | 250 to 500 | Cc1cc([C@@H](C)Nc2ccc(Cl)nc2C(=O)NS(C)(=O)=O)c2nc(N3C[C@@H]4C[C@H]3CN4c3ncc(C#N)cc3F)n(C)c(=O)c2c1 [Compound 579, 6-chloro-3-(((R)-1-(2-((1S,4S)-5-(5-cyano-3-fluoropyridin-2-yl)-2,5-diazabicyclo [2.2.1]heptan-2-yl)-3,6-dimethyl-4-oxo-3,4-dihydroquinazolin-8-yl)ethyl)amino)-N-(methylsulfonyl) picolinamide] |
| ≥ 5000 | 250 to 500 | Cc1cc([C@@H](C)Nc2ccc(Cl)nc2C(=O)NS(C)(=O)=O)c2nc(N3C[C@@H]4C[C@H]3CN4c3ccc(C#N)cn3)n(C)c(=O)c2c1 [Compound 580, 6-chloro-3-(((R)-1-(2-((1S,4S)-5-(5-cyanopyridin-2-yl)-2,5diazabicyclo [2.2.1]heptan-2-yl)-3,6-dimethyl-4-oxo-3,4-dihydroquinazolin-8-yl)ethyl)amino)-N-(methylsulfonyl) picolinamide] |
| ≥ 5000 | 250 to 500 | COc1nccc(N2C[C@@H]3C[C@H]2CN3c2nc3c([C@@H](C)Nc4ccc(Cl)nc4C(=O)NS(C)(=O)=O)cc(C)cc3c(=O)n2C)n1 [Compound 581, 6-chloro-3-(((R)-1-(2-((1S,4S)-5-(2-methoxypyrimidin-4-yl)-2,5-diazabicyclo [2.2.1]heptan-2-yl)-3,6-dimethyl-4-oxo-3,4-dihydroquinazolin-8-yl)ethyl)amino)-N-(methylsulfonyl) picolinamide] |
| ≥ 5000 | 250 to 500 | COc1nccc(N2C[C@H]3C[C@@H]2CN3c2nc3c([C@@H](C)Nc4ccc(Cl)nc4C(=O)NS(C)(=O)=O)cc(C)cc3c(=O)n2C)n1 [Compound 582, 6-chloro-3-(((R)-1-(2-((1R,4R)-5-(2-methoxypyrimidin-4-yl)-2,5-diazabicyclo [2.2.1]heptan-2-yl)-3,6-dimethyl-4-oxo-3,4-dihydroquinazolin-8-yl)ethyl)amino)-N-(methylsulfonyl) picolinamide] |
| ≥ 5000 | 250 to 500 | Cc1cc([C@@H](C)Nc2ccc(Cl)nc2C(=O)NS(C)(=O)=O)c2nc(N3C[C@@H]4[C@H](C3)[C@H]4n3cc(Cl)cn3)n(C)c(=O)c2c1 [Compound 583, 6-chloro-3-(((R)-1-(2-((1R,5S,6S)-6-(4-chloro-1H-pyrazol-1-yl)-3-azabicyclo[3.1.0]hexan-3-yl)-3,6-dimethyl-4-oxo-3,4-dihydroquinazolin-8-yl)ethyl)amino)-N-(methylsulfonyl) picolinamide] |
| 1000 to 5000 | < 250 | CCn1c(N2C[C@@H]3[C@H](C2)[C@H]3c2cnc(C)nc2)nc2c([C@@H](C)Nc3ccc(Cl)nc3C(=O)NS(C)(=O)=O)cc(C)cc2c1=O [Compound 584, 6-chloro-3-(((R)-1-(3-ethyl-6-methyl-2-((1R,5S,6S)-6-(2-methylpyrimidin-5-yl)-3-azabicyclo[3.1.0]hexan-3-yl)-4-oxo-3,4-dihydroquinazolin-8-yl)ethyl)amino)-N-(methylsulfonyl) picolinamide] |
| ≥ 5000 | 250 to 500 | Cc1cc([C@@H](C)Nc2ccc(Cl)nc2C(=O)NS(C)(=O)=O)c2nc(N3CCN(c4ccnc(C(F)(F)F)n4)CC3)n(C)c(=O)c2c1 [Compound 589, (R)-6-chloro-3-((1-(3,6-dimethyl-4-oxo-2-(4-(2-(trifluoromethyl)pyrimidin-4-yl)piperazin-1-yl)-3,4-dihydroquinazolin-8-yl)ethyl)amino)-N-(methylsulfonyl) picolinamide] |
| 1000 to 5000 | < 250 | Cc1cc([C@@H](C)Nc2ccc(Cl)nc2C(=O)NS(C)(=O)=O)c2nc(N3CCN(c4ccnc(C5CC5)n4)CC3)n(C)c(=O)c2c1 [Compound 590, (R)-6-chloro-3-((1-(2-(4-(2-cyclopropylpyrimidin-4-yl)piperazin-1-yl)-3,6-dimethyl-4-oxo-3,4-dihydroquinazolin-8-yl)ethyl)amino)-N-(methylsulfonyl) picolinamide] |
| ≥ 5000 | 250 to 500 | Cc1cc([C@@H](C)Nc2ccc(Cl)nc2C(=O)NS(C)(=O)=O)c2nc(N3C[C@@H]4C[C@H]3CN4c3cnc(C)cn3)n(C)c(=O)c2c1 [Compound 591, 6-chloro-3-(((R)-1-(3,6-dimethyl-2-((1S,4S)-5-(5-methylpyrazin-2-yl)-2,5diazabicyclo [2.2.1]heptan-2-yl)-4-oxo-3,4-dihydroquinazolin-8-yl)ethyl)amino)-N-(methylsulfonyl) picolinamide] |
| ≥ 5000 | 500 to 1000 | Cc1cc([C@@H](C)Nc2ccc(Cl)nc2C(=O)NS(C)(=O)=O)c2nc(N3C[C@H]4C[C@@H]3CN4c3cnc(C)nc3)n(C)c(=O)c2c1 [Compound 592, 6-chloro-3-(((R)-1-(3,6-dimethyl-2-((1R,4R)-5-(2-methylpyrimidin-5-yl)-2,5-diazabicyclo [2.2.1]heptan-2-yl)-4-oxo-3,4-dihydroquinazolin-8-yl)ethyl)amino)-N-(methylsulfonyl) picolinamide] |
| ≥ 5000 | 250 to 500 | Cc1cc([C@@H](C)Nc2ccc(Cl)nc2C(=O)NS(C)(=O)=O)c2nc(N3C[C@@H]4[C@H](C3)[C@H]4c3n[nH]cc3Cl)n(C)c(=O)c2c1 [Compound 593, 6-chloro-3-(((R)-1-(2-((1R,5S,6R)-6-(4-chloro-1H-pyrazol-3-yl)-3-azabicyclo[3.1.0]hexan-3-yl)-3,6-dimethyl-4-oxo-3,4-dihydroquinazolin-8-yl)ethyl)amino)-N-(methylsulfonyl) picolinamide] |
| 1000 to 5000 | < 250 | Cc1cc([C@@H](C)Nc2ccc(Cl)nc2C(=O)NS(C)(=O)=O)c2nc(N3C[C@@H]4[C@H](C3)[C@H]4c3n[nH]c(C)c3F)n(C)c(=O)c2c1 [Compound 594, 6-chloro-3-(((R)-1-(2-((1R,5S,6R)-6-(4-fluoro-5-methyl-1H-pyrazol-3-yl)-3-azabicyclo[3.1.0]hexan-3-yl)-3,6-dimethyl-4-oxo-3,4-dihydroquinazolin-8-yl)ethyl)amino)-N-(methylsulfonyl) picolinamide] |
| 1000 to 5000 | < 250 | Cc1cc([C@@H](C)Nc2ccc(Cl)nc2C(=O)NS(C)(=O)=O)c2nc(N3CCC(c4nc(C)no4)CC3)n(C)c(=O)c2c1 [Compound 595, (R)-6-chloro-3-((1-(3,6-dimethyl-2-(4-(3-methyl-1,2,4-oxadiazol-5-yl)piperidin-1-yl)-4-oxo-3,4-dihydroquinazolin-8-yl)ethyl)amino)-N-(methylsulfonyl) picolinamide] |
| ≥ 5000 | 250 to 500 | COc1cccc(N2CCN(c3nc4c([C@@H](C)Nc5ccc(Cl)nc5C(=O)NS(C)(=O)=O)cc(C)cc4c(=O)n3C)CC2)n1 [Compound 596, (R)-6-chloro-3-((1-(2-(4-(6-methoxypyridin-2-yl)piperazin-1-yl)-3,6-dimethyl-4-oxo-3,4-dihydroquinazolin-8-yl)ethyl)amino)-N-(methylsulfonyl) picolinamide] |
| ≥ 5000 | 1000 to 5000 | Cc1cc([C@@H](C)Nc2ccc(Cl)nc2C(=O)NS(C)(=O)=O)c2nc(N3C[C@H]4C[C@@H]3CN4c3ccc(N)cn3)n(C)c(=O)c2c1 [Compound 597, 3-(((R)-1-(2-((1R,4R)-5-(5-aminopyridin-2-yl)-2,5-diazabicyclo [2.2.1]heptan-2-yl)-3,6-dimethyl-4-oxo-3,4-dihydroquinazolin-8-yl)ethyl)amino)-6-chloro-N-(methylsulfonyl) picolinamide] |
| 1000 to 5000 | < 250 | Cc1cc([C@@H](C)Nc2ccc(Cl)nc2C(=O)NS(C)(=O)=O)c2nc(N3C[C@@H]4[C@H](C3)[C@H]4c3nnc(C)s3)n(C)c(=O)c2c1 [Compound 598, 6-chloro-3-(((R)-1-(3,6-dimethyl-2-((1R,5S,6R)-6-(5-methyl-1,3,4-thiadiazol-2-yl)-3-azabicyclo[3.1.0]hexan-3-yl)-4-oxo-3,4-dihydroquinazolin-8-yl)ethyl)amino)-N-(methylsulfonyl) picolinamide] |
| 1000 to 5000 | 250 to 500 | Cc1cc([C@@H](C)Nc2ccc(Cl)nc2C(=O)NS(C)(=O)=O)c2nc(N3C[C@H]4C[C@@H]3CN4c3ccc(C#N)cn3)n(C)c(=O)c2c1 [Compound 601, 6-chloro-3-(((R)-1-(2-((1R,4R)-5-(5-cyanopyridin-2-yl)-2,5-diazabicyclo [2.2.1]heptan-2-yl)-3,6-dimethyl-4-oxo-3,4-dihydroquinazolin-8-yl)ethyl)amino)-N-(methylsulfonyl) picolinamide] |
| ≥ 5000 | 250 to 500 | Cc1cc([C@@H](C)Nc2ccc(Cl)nc2C(=O)NS(C)(=O)=O)c2nc(N3C[C@H]4C[C@@H]3CN4c3ccc(F)cn3)n(C)c(=O)c2c1 [Compound 602, 6-chloro-3-(((R)-1-(2-((1R,4R)-5-(5-fluoropyridin-2-yl)-2,5-diazabicyclo [2.2.1]heptan-2-yl)-3,6-dimethyl-4-oxo-3,4-dihydroquinazolin-8-yl)ethyl)amino)-N-(methylsulfonyl) picolinamide] |
| ≥ 5000 | 500 to 1000 | Cc1cc([C@@H](C)Nc2ccc(Cl)nc2C(=O)NS(C)(=O)=O)c2nc(N3C[C@H]4C[C@@H]3CN4c3ccccn3)n(C)c(=O)c2c1 [Compound 603, 6-chloro-3-(((R)-1-(3,6-dimethyl-4-oxo-2-((1R,4R)-5-(pyridin-2-yl)-2,5-diazabicyclo [2.2.1]heptan-2-yl)-3,4-dihydroquinazolin-8-yl)ethyl)amino)-N-(methylsulfonyl) picolinamide] |
